Results: patent publication US9456589B2, “Elasmobranch-repelling compounds and methods of use” (priority 2005, dated 2016)
Several values for one entry are separate records, joined by “and”; a condition that tells them apart may be missing. Equal entries are not always repeated. Entries after “also recorded” stand apart in the source; their conditions may differ.

Key:
[1] = tested on: nurse sharks; assay: Tonic immobility, Bite Assay; assay type: in vivo, C. cirratum
Method: One bioassay used to observe and measure flight response is the tonic immobility test. Tonic immobility is a state of paralysis that typically occurs when a shark is subject to inversion of its body along the longitudinal axis. This state is called “tonic,” and the shark can remain in this state for up to 15 minutes thereby allowing researchers to observe effects of chemical repellents. The “tonic” state of the shark is first established by releasing seawater in proximity to the “tonic” shark with the same delivery instrument and at the same distance as a “test” repellent compound will be released. Some controls are released with a high flow rate (30 mL/sec) in order to establish that sharks are not awakened by a jet of fluid over their noses. Once behavioral controls are established, a compound or composition that may have a repelling effect is delivered to the shark. […] Using this tonic immobility bioassay researches can quantify the strength of a repellent effect. […]
In Bite Assays, a dose of typically less than 5 mL of 3-methylbutanal was presented directly into the shark's mouth using a pipette. […] Because the delivery was directly into the shark's mouth and responses were generally observed immediately upon delivery, time to response was not recorded.

[2] = tested on: sharks (lemon, nurse, blacknose, blacktip pooled); assay: Tonic immobility, Syringe Assay, summary over species; assay type: in vivo
Method: (§1) One bioassay used to observe and measure flight response is the tonic immobility test. Tonic immobility is a state of paralysis that typically occurs when a shark is subject to inversion of its body along the longitudinal axis. This state is called “tonic,” and the shark can remain in this state for up to 15 minutes thereby allowing researchers to observe effects of chemical repellents. The “tonic” state of the shark is first established by releasing seawater in proximity to the “tonic” shark with the same delivery instrument and at the same distance as a “test” repellent compound will be released. Some controls are released with a high flow rate (30 mL/sec) in order to establish that sharks are not awakened by a jet of fluid over their noses. Once behavioral controls are established, a compound or composition that may have a repelling effect is delivered to the shark. If the compound or composition engenders a flight response, the shark will awaken from the tonic state and rapidly attempt to flee the delivered repellent. Using this tonic immobility bioassay researches can quantify the strength of a repellent effect.
A second delivery method called the “Syringe Assay” method delivered a dose of 60 mL or more of a test chemical repellent from at least one foot, and up to as many as five feet, from a shark. The distance of delivery was determined based on the strength of the water current in the direction of the shark. Time from delivery of the test substance until response was observed, measured and recorded. The “Syringe” method allows a researcher to observe how a diffusing and diluting cloud of test chemical repellent affects the shark's behavior when the shark encounters the delivered cloud of test substance. The “Syringe” method requires relatively large doses because of the diffusion of the cloud over time and distance. Time from delivery to response is related to the size of the bolus delivered from the syringe, distance of the shark from the syringe and water current.
In the Syringe assay about 60 mL or more of valeraldehyde was delivered from one to as many as five feet from the shark depending on the water current. […] Time from delivery to response was related to the size of the bolus delivered from the syringe, distance of the shark from the syringe and water current.

[3] = tested on: Caribbean reef and blacknose sharks; assay: Cloud Dispersion Assay on competitively feeding sharks; assay type: in vivo, C. perezii, C. acronotus; conditions: 290 microliters
Source text: Another bioassay used to observe a flight response in sharks is a cloud dispersion assay on competitively feeding population of sharks. This assay is referred to as a “Cloud Dispersion Assay” or “Cloud Assay.” A pressurized fluid delivery system was designed to deliver repellent into large feeding populations of sharks. The repellent is released as a subsurface cloud, which follows the current. A 1 L plastic container containing the test chemical repellent solution is pressurized to approximately 20 psig with a battery compressor or hand pump. A globe valve is used to hold back the fluid. The fluid is delivered to the end of a long PVC pole using a Teflon tubing. This allows the operator to place the tip of the pole well into a population of feeding sharks. By actuating the small globe valve, a cloud of the chemical solution is released quickly and reliably into the feeding population. Controls are established using FD&C Red 40 dye and seawater, uncolored seawater, and air. These controls establish that sharks are not afraid to approach the delivery pole, nor are sharks deterred from feeding by the jet of control fluid or air.
In each assay disclosed herein, a control of sea water was performed prior to the testing of each test repellent. In the control, sea water was delivered to the shark to be tested in the same delivery manner as the test repellent was delivered. […]

[4] = tested on: nurse sharks; assay: Tonic immobility, Hd Syringe Assay; assay type: in vivo, C. cirratum; conditions: nurse; Hd syringe
Method: as §1
Lemon, nurse, blacktip and tiger sharks were placed in tonic immobility by inverting the shark's body along its longitudinal axis. […]

[5] = tested on: lemon sharks; assay: Tonic immobility, Micropipette Assay; assay type: in vivo, N. brevirostris; conditions: lemon / juvenile sharks; micropipette
Method: as §1
(§2) A fourth method of delivery was called the “Micropipette Assay” method of delivery. In this method, a very small dose (fraction of a mL) of a test substance was delivered directly into a shark's mouth. […] A response, such as a cough or other notable action of the shark, was usually noted when effective gustatory repellents were delivered directly into a shark's mouth while in tonic immobility.
The Micropipette Assay method has not proven to be a particularly effective method of assaying for a flight response in elasmobranchs. The Micropipette Assay method is, nevertheless, an excellent method for specifying that a gustatory response has occurred. It is effective for specifying a gustatory response because the micropipette delivery method allows direct delivery of an entire bolus of test substance into the mouth of the shark being tested.
Using a microliter syringe or microliter pipette, a bolus of test chemical can be directed precisely into one of the shark's nares, or its mouth. […] Olfactory repellents will terminate tonic immobility almost immediately when injected into a nare of the shark.
(§3) Lemon, nurse, blacktip and tiger sharks were placed in tonic immobility by inverting the shark's body along its longitudinal axis. […] The “tonic” state of each shark was first established by releasing a control of seawater in proximity to the shark with the same delivery instrument and at the same distance as the chemical repellent would later be delivered. In certain controls, sea water was released with a high flow rate (30 mL/sec) in order to establish that the sharks would not be awakened by a jet of fluid over their noses.
(§4) Once behavioral controls were established, the chemical repellent was delivered to the shark using the Hd Syringe Assay method, the Syringe 3/5/10 Assay method, the Bite Assay method or the Micropipette Assay method. […] If tonic immobility was terminated, the positive response was denoted as “Y.” If tonic immobility was not terminated but a behavior change within tonic immobility was noted, such as the opening of the mouth or a cough, the response was denoted as an “R” for reduced response. If no behavior change was observed, the negative response was denoted “N.”
Further because the Micropipette assays were often done serially on the same set of sharks, second and third doses of the repellent over time would be expected to evoke less of a reaction. Nevertheless, the small doses delivered to the shark in the Micropipette assay provide important data on whether a compound is a gustatory stimulant because the small dose may be delivered directly into the mouth of the shark. This eliminates any olfactory response that might be acting in concert with a gustatory response to terminate tonic immobility.

[6] = tested on: tiger sharks; assay: Tonic immobility, Syringe 3/5/10 Assay; assay type: in vivo, G. cuvieri; conditions: tiger shark
Method: as §1
In the tonic immobility studies disclosed herein, several different methods were employed for delivery of repelling compounds. A first method for delivery of chemical repellent in tonic immobility studies employed a “Syringe 3/5/10 Assay” method. […]

[7] = tested on: lemon sharks; assay: Tonic immobility, Hd Syringe Assay; assay type: in vivo, N. brevirostris; conditions: lemon; Hd syringe
Method: as §1, §3
Once behavioral controls were established, the chemical repellent was delivered to the shark using the Hd Syringe Assay method, the Syringe 3/5/10 Assay method, the Bite Assay method or the Micropipette Assay method. […]

[8] = tested on: nurse sharks; assay: Tonic immobility, Micropipette Assay; assay type: in vivo, C. cirratum; conditions: nurse; micropipette; 270 ul
Method: as §1, §2
The Micropipette Assay method has not proven to be a particularly effective method of assaying for a flight response in elasmobranchs. The Micropipette Assay method is, nevertheless, an excellent method for specifying that a gustatory response has occurred. It is effective for specifying a gustatory response because the micropipette delivery method allows direct delivery of an entire bolus of test substance into the mouth of the shark being tested. […]

[9] = tested on: blacktip sharks; assay: Tonic immobility, Syringe 3/5/10 Assay; assay type: in vivo, C. limbatus
Method: as §1
In the tonic immobility studies disclosed herein, several different methods were employed for delivery of repelling compounds. A first method for delivery of chemical repellent in tonic immobility studies employed a “Syringe 3/5/10 Assay” method. The “Syringe 3/5/10 Assay” method is so named because a test repellent is delivered to a shark from a distance of about “3” inches with a bolus of about “5” mL with a response to the test repellent considered positive if the shark reacts with a change in behavior within less than about “10” seconds from the time of delivery.
The “3/5/10 Syringe Assay” as employed herein delivered a dose of 5-6 mL of a test chemical repellent from a syringe fixed with a needle having a gauge of about 22 from a distance at least 3 inches in front of a shark. Because the test chemical repellent was delivered at a distance from the shark's nares and mouth, a cloud of test chemical repellent was dispersed over the shark within the water column. The dispersed test repellent was subject to water current direction, dispersion and dilution. As a result, a flight response within 10 seconds was considered a positive repellency response. […] Time from delivery to response is related to the size of the bolus delivered from the syringe, distance of the shark from the syringe and water current.
as §3, §4
In Syringe 3/5/10 Assays, 5-6 mL of 3-methylbutanal was delivered at least 3 inches in front of the shark's mouth. A cloud of the repellent dispersed over the shark within the water column. […] As noted above, because the dispersion of the chemical repellent upon delivery is affected by volume of repellent, water current, and other factors, the time between delivery and response was not correlatable with the potency of the repellent. […]

[10] = tested on: nurse sharks; assay: Tonic immobility, Syringe 3/5/10 Assay; assay type: in vivo, C. cirratum; conditions: juvenile nurse sharks
[11] = tested on: lemon sharks; conditions: Table 24; lemon shark; swab delivery

In the case of `CC(=O)C(C)=O` [2,3-butanedione], the “Bite Y (termination of tonic immobility), trials of trials” value [1] was “terminated and 1/1”, the “Syringe N (no response), trials of trials” value [2] was 1/8 and the “Syringe R (behavior response within tonic immobility), trials of trials” value [2] was “behavioral response”. For the same compound, the “Syringe Y (termination of tonic immobility), trials of trials” value [2] was “seven of eight and 7/8” and the “Cloud/Cage N (no response)” value [3] was “no response and 1/1”.
For `CCC(C=O)CC` [diethylacetaldehyde], the “Comments (behavior observed)” value [4] was “cough”, the “Comments (behavior observed)” value [5] was “blinked; also recorded: cough” and the “Syringe 3/5/10 assay outcome” value [6] was “terminated”. For the same compound, the “Comments (behavior observed)” value [7] was “cough”, the “Response (time from delivery to response)” value [8] was 1 s and the “Syringe 3/5/10 assays terminating tonic immobility” value ([9]; blacktip sharks) was “two of four”. For the same compound, the “Syringe 3/5/10 assays with behavioral response” value ([9]; blacktip sharks) was “behavioral response”, the “Syringe 3/5/10 assays with no response” value ([9]; blacktip sharks) was “no response” and the “Comments (behavior observed)” value ([9]; blacktip, syringe 3/5/10) was “cough/tensed”. For the same compound, the “Syringe 3/5/10 assays terminating tonic immobility” value [10] was “six of six”.
For `O=C(O)CCC(=O)O` [succinic acid], the “T? (termination of tonic immobility)” value [11] was “N”.
